In ChEMBL document CHEMBL1201861, “Genomics of Drug Sensitity in Cancer screening data, Wellcome Trust Sanger Institute” one finds IC50 data, which are given here for eleven compounds.

The subject of one assay is D-542MG. Description: cells. The format is functional, cell-based, Homo sapiens. The settings on record: Homo sapiens, D-542MG.
The subject of the next assay is DG-75. Briefly: cells. The format is functional, cell-based, Homo sapiens. The settings on record: Homo sapiens, DG-75.
The subject of the next assay is Daudi. Description: cells. It is filed as functional, cell-based, Homo sapiens. The settings on record: Homo sapiens, Daudi.
The test system of another assay is GDM-1. Briefly: cells. Conditions: Homo sapiens, GDM-1. It is filed as functional, cell-based, Homo sapiens.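 Note: cell viability readout used to measure growth inhibition of human GDM-1 cells.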
The test system of the next assay is IST-SL2. Description: cells. It is filed as functional, cell-based, Homo sapiens. The settings on record: Homo sapiens, IST-SL2.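 Note: growth inhibition of human IST-SL2 cells, read out by a cell viability assay.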
The subject of a further assay is MC-CAR. Briefly: cells. The format is functional, cell-based, Homo sapiens. Conditions: Homo sapiens, MC-CAR.
The subject of the next assay is NCI-H719. Description: cells. It is filed as functional, cell-based, Homo sapiens. The settings on record: Homo sapiens, NCI-H719.
The subject of another assay is NCI-H748. Briefly: cells. It is filed as functional, cell-based, Homo sapiens. The settings on record: Homo sapiens, NCI-H748.
The next assay has as its system SCC-3. Description: cells. The format is functional, cell-based, Homo sapiens. The settings on record: Homo sapiens, SCC-3.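 Note: cell viability assay measuring inhibition of SCC-3 cell growth.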
Another assay deals with BL-41. Description: cells. It is filed as functional, cell-based, Homo sapiens. The settings on record: Homo sapiens, BL-41.
A further assay has as its system BL-70. Briefly: SANGER: Inhibition of human BL-70 cell growth in a cell viability assay. It is filed as functional, cell-based. The settings on record: Homo sapiens, BL-70.
Another assay relates to TUR. Description: cells. The format is functional, cell-based, Homo sapiens. Conditions: Homo sapiens, TUR.
Another assay concerns UACC-812. Description: cells. It is filed as functional, cell-based, Homo sapiens. The settings on record: Homo sapiens, UACC-812.

Where only a bound is given, the exact number is not on record here.

Description for BL-41: SANGER: Inhibition of human BL-41 cell growth in a cell viability assay.
Description for D-542MG: SANGER: Inhibition of human D-542MG cell growth in a cell viability assay.
Description for DG-75: SANGER: Inhibition of human DG-75 cell growth in a cell viability assay.
Description for Daudi: SANGER: Inhibition of human Daudi cell growth in a cell viability assay.
Description for GDM-1: SANGER: Inhibition of human GDM-1 cell growth in a cell viability assay.
Description for IST-SL2: SANGER: Inhibition of human IST-SL2 cell growth in a cell viability assay.
Description for MC-CAR: SANGER: Inhibition of human MC-CAR cell growth in a cell viability assay.
Description for NCI-H719: SANGER: Inhibition of human NCI-H719 cell growth in a cell viability assay.
Description for NCI-H748: SANGER: Inhibition of human NCI-H748 cell growth in a cell viability assay.
Description for SCC-3: SANGER: Inhibition of human SCC-3 cell growth in a cell viability assay.
Description for TUR: SANGER: Inhibition of human TUR cell growth in a cell viability assay.
Description for UACC-812: SANGER: Inhibition of human UACC-812 cell growth in a cell viability assay.

In the case of `COc1cc(N2CCN(C)CC2)ccc1Nc1ncc2c(n1)N(C)c1ccccc1C(=O)N2C`, the 50% inhibitory concentration (IC50) in the assay on D-542MG was 2000 nM; with DG-75, 5610 nM; with Daudi it was above 8000 nM; in the assay with GDM-1 it was above 8000 nM; with IST-SL2 it was 3820 nM; in the assay on MC-CAR, above 8000 nM. Also, the IC50 with NCI-H719 is above 8000 nM; in the assay on NCI-H748, above 8000 nM; in the assay on SCC-3 it was above 8000 nM; in the assay on BL-41 it was 3650 nM; in the assay with BL-70 it was above 8000 nM; in the assay on TUR it was above 8000 nM. In addition, in the assay on UACC-812, the IC50 is above 8000 nM.
With `COc1cc(-c2nn([C@H]3CC[C@H](N4CCN(C(C)=O)CC4)CC3)c3ncnc(N)c23)ccc1NC(=O)c1cc2ccccc2n1C`, the IC50 is above 5120 nM in the assay on DG-75; above 5120 nM in the assay with Daudi; above 5120 nM in the assay with GDM-1; 1160 nM in the assay on IST-SL2; above 5120 nM in the assay with MC-CAR; above 5120 nM with NCI-H719. In addition, the IC50 was above 5120 nM in the assay with NCI-H748; above 5120 nM in the assay with SCC-3; 1690 nM with BL-41; below 20 nM with BL-70; above 5120 nM with TUR.
Turning to `OCCCNc1cc(-c2ccnc(Nc3cccc(Cl)c3)n2)ccn1`, the IC50 in the assay on DG-75 is 111 nM; in the assay with Daudi it was 55.3 nM; in the assay on GDM-1 it was above 256 nM; in the assay on IST-SL2 it was 24.9 nM; in the assay with MC-CAR, 121 nM; in the assay with NCI-H719 it was above 256 nM. Also, the IC50 was 76.4 nM in the assay on NCI-H748; 37.8 nM in the assay with SCC-3; 33.6 nM in the assay on BL-41; 30.1 nM in the assay with BL-70; above 256 nM in the assay with TUR.
On to `Cc1ccc(-c2c(C(=O)CCl)n(CCCO)c3ncnc(N)c23)cc1`, for which the 50% inhibitory concentration (IC50) in the assay with DG-75, in the assay with Daudi, in the assay on GDM-1, in the assay with IST-SL2, with MC-CAR and in the assay with NCI-H719 was above 4000 nM in each case. Further, the IC50 in the assay on NCI-H748, in the assay with SCC-3, in the assay on BL-41, in the assay with BL-70 and in the assay on TUR was above 4000 nM throughout.
As for `C#Cc1cccc(Nc2ncnc3cc(OCCOC)c(OCCOC)cc23)c1` [ERLOTINIB], the IC50 in the assay with D-542MG, in the assay with DG-75, in the assay on Daudi, in the assay on GDM-1, with IST-SL2 and in the assay with MC-CAR was above 2000 nM each time. For the same compound, the IC50 in the assay with NCI-H719, with NCI-H748, in the assay on SCC-3, with BL-41, in the assay on BL-70 and in the assay on TUR was above 2000 nM each time. For the same compound, the IC50 in the assay on UACC-812 is above 2000 nM.
As to `COc1cc2ncn(-c3cc(OCc4ccccc4S(C)(=O)=O)c(C#N)s3)c2cc1OC` [GSK-319347A], the IC50 in the assay with D-542MG, with DG-75, in the assay with Daudi, with GDM-1, in the assay on IST-SL2 and with MC-CAR was above 5000 nM throughout. In addition, the IC50 in the assay with NCI-H719, in the assay on NCI-H748, in the assay on SCC-3, in the assay on BL-41, in the assay with BL-70 and in the assay on TUR was above 5000 nM throughout. Besides, the IC50 with UACC-812 was above 5000 nM.
`COc1cc2ncn(-c3cc(OCc4ccccc4C(F)(F)F)c(C(N)=O)s3)c2cc1OC` [GW843682X]: the IC50 in the assay on DG-75 is 63.3 nM; in the assay with Daudi it was 34.7 nM; with GDM-1 it was 50.8 nM; with IST-SL2 it was 112 nM; in the assay on MC-CAR, 76.1 nM; in the assay on NCI-H719, above 256 nM. For the same compound, the IC50 is above 256 nM with NCI-H748; 48.7 nM in the assay with SCC-3; 10.9 nM in the assay on BL-41; 8.55 nM in the assay with BL-70; above 256 nM in the assay on TUR.
For `CC(=O)O[C@H]1C(=O)[C@@]2(C)[C@H]([C@H](OC(=O)c3ccccc3)[C@]3(O)C[C@H](OC(=O)[C@H](O)[C@@H](NC(=O)c4ccccc4)c4ccccc4)C(C)=C1C3(C)C)[C@]1(OC(C)=O)CO[C@@H]1C[C@@H]2O` [PACLITAXEL], the IC50 is 69 nM in the assay with DG-75; 17.1 nM with Daudi; above 102 nM in the assay on GDM-1; 42.7 nM in the assay with IST-SL2; 23.3 nM with MC-CAR; above 102 nM with NCI-H719. Also, the IC50 is above 102 nM in the assay on NCI-H748; 12 nM in the assay with SCC-3; 9.34 nM in the assay with BL-41; 9.3 nM with BL-70; above 102 nM with TUR.
As for `N[C@@H](CSC(c1ccccc1)(c1ccccc1)c1ccccc1)C(=O)O` [S-TRITYL-L-CYSTEINE], the IC50 in the assay with DG-75 is above 5120 nM; with Daudi, 1170 nM; with GDM-1, 2490 nM; in the assay with IST-SL2 it was 2260 nM; with MC-CAR it was 1210 nM; in the assay with NCI-H719 it was above 5120 nM. For the same compound, the IC50 with NCI-H748 was above 5120 nM; in the assay on SCC-3 it was 1260 nM; with BL-41, 1640 nM; in the assay on BL-70, 547 nM; in the assay on TUR it was above 5120 nM.
For the compound `CC[C@H](CO)Nc1nc(NCc2ccccc2)c2ncn(C(C)C)c2n1` [SELICICLIB], the IC50 in the assay on D-542MG, in the assay with DG-75, in the assay on Daudi, with GDM-1, in the assay with IST-SL2 and with MC-CAR was above 16000 nM in each case. Besides, the IC50 is above 16000 nM in the assay with NCI-H719; above 16000 nM in the assay with NCI-H748; 14300 nM in the assay on SCC-3; above 16000 nM with BL-41; above 16000 nM in the assay with BL-70; above 16000 nM in the assay on TUR. The IC50 with UACC-812 is above 16000 nM.
Regarding `CCN(CC)CCNC(=O)c1c(C)[nH]c(/C=C2\C(=O)Nc3ccc(F)cc32)c1C` [SUNITINIB], the IC50 was 6430 nM in the assay on DG-75; above 8000 nM in the assay on Daudi; above 8000 nM in the assay on GDM-1; 6130 nM with IST-SL2; above 8000 nM in the assay on MC-CAR; above 8000 nM in the assay with NCI-H719. For the same compound, the IC50 in the assay on NCI-H748 was above 8000 nM; in the assay on SCC-3, 2830 nM; in the assay with BL-41 it was 2910 nM; with BL-70, 1120 nM; with TUR, above 8000 nM.

The term IC50 denotes the concentration at which inhibition is half-maximal. A high value points to a need for much substance.
